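Five compound concentrations were applied to cells in 96-well plates for 48 hours; endpoints were derived by simple linear interpolation of the resulting dose-response curve. The concentration for 50% growth inhibition is given as GI50. TGI: total growth inhibition.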
Experiments:
Experiment in all cases: NCI-60 cell line screen, 48 h
[1] = system: DU-145 prostate
[2] = system: SW-620 colon
[3] = system: T-47D breast
[4] = system: MDA-MB-435
[5] = system: SK-MEL-28 melanoma
[6] = system: CCRF-CEM leukemia
[7] = system: MOLT-4 leukemia
[8] = system: MDA-MB-231 breast
[9] = system: UO-31 renal
[10] = system: HOP-92 NSCLC
[11] = system: U251 CNS
[12] = system: HCT-116 colon
[13] = system: SNB-19 CNS
[14] = system: NCI/ADR-RES ovarian
[15] = system: HOP-62 NSCLC
[16] = system: SNB-75 CNS
[17] = system: NCI-H460 lung
[18] = system: MDA-N

| SMILES | TGI [1] [µM] | TGI [2] [µM] | TGI [3] [µM] | TGI [4] [µM] | TGI [5] [µM] | TGI [6] [µM] | TGI [7] [µM] | TGI [8] [µM] | TGI [9] [µM] | TGI [10] [µM] | TGI [11] [µM] | TGI [12] [µM] | TGI [13] [µM] | TGI [14] [µM] | TGI [15] [µM] | TGI [16] [µM] | TGI [17] [µM] | TGI [18] [µM] | GI50 [7] [µM] |
| --- | --- | --- | --- | --- | --- | --- | --- | --- | --- | --- | --- | --- | --- | --- | --- | --- | --- | --- | --- |
| Cc1cc(NS(=O)(=O)c2ccc(Nc3c4ccccc4nc4ccc(C(=O)Nc5ccc(S(N)(=O)=O)cc5)cc34)cc2)no1 | > 100 | > 100 | > 100 | > 100 | > 100 | > 100 | > 100 | > 100 | > 100 | > 100 | > 100 | > 100 | > 100 | > 100 | > 100 | > 100 | > 100 | > 100 | – |
| COc1cc(N(CCC#N)CCC#N)ccc1/C(N=Nc1ccccc1)=N/NC(=O)c1cc(Br)ccc1O | 74.3 | > 100 | 57.8 | > 100 | 87.6 | 33.2 | 38.3 | 62.6 | 57.5 | 68.6 | > 100 | 44.1 | > 100 | > 100 | 95.5 | > 100 | 51.1 | > 100 | – |
| C=C1C(=O)O[C@H]2[C@H]1CC(=O)/C(C)=C/CC[C@@]1(C)O[C@@H]21 | 18.7 | 0.768 | 2.93 | 5.43 | 1.3 | 0.394 | 1.13 | 3.5 | 2.29 | 1.65 | 13.6 | 2.51 | 13.8 | 10.8 | 22 | 31.6 | 29.8 | 1.27 | 0.276 |
| O=C(c1ccccc1)c1sc2c(=O)c(C(=O)c3ccccc3)c(C(=O)c3ccccc3)sc2c(=O)c1C(=O)c1ccccc1 | > 100 | > 100 | > 100 | 70.9 | > 100 | > 100 | > 100 | > 100 | 22.6 | > 100 | > 100 | > 100 | > 100 | 74.9 | > 100 | 68 | > 100 | > 100 | – |
| CN(C)C(=O)Oc1ccc(-c2cn3cc(NC(=O)c4ccccc4)ccc3n2)cc1 | > 100 | > 100 | > 100 | > 100 | > 100 | > 100 | > 100 | > 100 | > 100 | > 100 | > 100 | > 100 | > 100 | > 100 | > 100 | > 100 | > 100 | > 100 | – |
| CC(=O)OC1CC[C@]2(C)C3CC[C@@]4(C)C(CCC4[C@H](C)CCCC(C)C)[C@@H]3CCC2(Br)C1 (some centres not stated) | > 50 | 19.3 | > 50 | 19.4 | 16.2 | 27.3 | 28 | 38 | 24.6 | > 50 | > 50 | 16.5 | > 50 | > 50 | > 50 | > 50 | > 50 | > 50 | – |
| CN1CCC23c4c5ccc(O)c4OC2c2[nH]c4ccccc4c2CC3(O)C1C5 (configuration not stated) | > 100 | > 100 | 46.9 | 36.9 | 28.4 | 46.9 | 93.6 | 86.5 | 30.9 | 40.5 | 52.9 | > 100 | > 100 | > 100 | > 100 | > 100 | > 100 | 44.9 | – |
| C=CC[C@@]1(C)CCCCCCCCC[C@@](C)(CC=C)C1=O | > 100 | 63.5 | 60.9 | > 100 | > 100 | 42.8 | 43.2 | 80.9 | > 100 | > 100 | 33 | > 100 | 45 | > 100 | > 100 | 92.4 | 59.1 | > 100 | – |
| NC(N)=NCCCC(NC(=O)OCCCCCCn1ccc(N)nc1=O)C(=O)O (configuration not stated) | > 100 | > 100 | > 100 | > 100 | > 100 | > 100 | > 100 | > 100 | > 100 | > 100 | > 100 | > 100 | > 100 | > 100 | > 100 | > 100 | > 100 | > 100 | – |
| COc1cc(/C=C/c2cc(/C=C/c3ccc(O)c(OC)c3)oc(=O)c2)ccc1O | 6.82 | > 24.5 | 4.86 | 22.5 | > 100 | > 26.1 | > 26.2 | > 96.2 | > 100 | 32.6 | > 51.8 | > 65.8 | > 100 | 26.1 | 27.2 | 4.61 | 7.63 | > 100 | – |
| C=C1CN(Cc2ccccc2)[C@@H]2CCCCC[C@H](C#N)[C@H]12 | > 100 | > 100 | > 100 | > 100 | > 100 | > 100 | > 100 | > 100 | > 100 | > 93 | > 100 | > 100 | > 100 | > 100 | > 100 | > 100 | > 100 | > 100 | – |
| COc1ccc(Cc2nccc3cc(OC)c(OC)cc23)cc1OC | > 100 | > 100 | > 100 | > 100 | > 100 | > 100 | > 100 | > 100 | > 100 | > 100 | > 100 | > 100 | > 100 | > 100 | > 100 | > 100 | > 100 | > 100 | – |
| O=C(NC(Nc1ccc(F)c(Cl)c1)(C(F)(F)F)C(F)(F)F)OCc1ccccc1 | > 100 | > 100 | > 100 | > 100 | > 100 | > 100 | 89.1 | 33.5 | 54.1 | 95 | > 100 | > 100 | 51 | > 100 | > 100 | > 100 | > 100 | 56.2 | – |
| COc1cc2c(cc1OCc1ccccc1)NC(=S)[C@@H]1CCCN1C2=S | > 100 | > 100 | > 100 | > 100 | > 100 | > 100 | > 100 | > 100 | > 100 | > 100 | > 100 | > 100 | > 100 | > 100 | 66.2 | 90.3 | > 100 | > 100 | – |
| O=C1/C(=C/c2ccc(Cl)cc2)N=C(c2ccccc2)N1c1ccc(S(=O)(=O)Nc2nccs2)cc1 | > 100 | > 100 | 75.2 | 76.4 | > 100 | 87 | 83.2 | 55.9 | > 100 | 90.7 | > 100 | > 100 | > 100 | > 100 | > 100 | > 100 | > 100 | > 100 | – |
| c1ccc(C[n+]2cccc(-c3cc4ccccc4[nH]3)c2)cc1 | > 100 | > 100 | > 100 | 43.7 | 38 | 38.6 | 91.1 | > 100 | > 100 | 54 | > 100 | > 100 | > 100 | > 100 | 96.4 | > 100 | > 100 | 37.6 | – |
| N#CCCN(CCN(C(=O)Nc1ccccc1)c1ccccc1)C(=O)Nc1ccccc1 | > 100 | > 100 | > 100 | > 100 | > 100 | 47.7 | > 84.5 | > 100 | > 100 | > 100 | > 100 | > 100 | > 100 | > 100 | > 100 | > 100 | > 100 | > 100 | – |
